In the supplement of paper PMC11451515:

Key:
Test in all cases: AUC of viability dose-response curve (% viability x log10 dose units); higher = less sensitive
Settings in all cases: 48 h
NOMO1 = system: NOMO1
Outline: (§1)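 Seeding of medium-adapted leukemia cells was at 500 or 1000 cells/well in 1536-well plates, followed by 48 h at 37°C with library compounds in DMSO at 11 threefold doses from 47 μM to 0.79 nM. CellTiter-Glo One luminescence was normalised per plate to DMSO and cell-free wells and fitted as a four-parameter log-logistic function of log10 dose. Area under the curve was integrated by trapezoidal rule, with curves exceeding full viability scaled and curves failing quality control removed.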

P12-Ichikawa = system: P12-Ichikawa
Outline: as §1

SEM cells = system: SEM cells
Outline: as §1

[1] = RPMI 5 mM glucose + 10% dialyzed FBS

Row | SMILES | AUC of viability dose-response curve (NOMO1; HPLM + 10% dialyzed FBS) | AUC of viability dose-response curve (NOMO1; RPMI 5 mM glucose + 10% FBS) | AUC of viability dose-response curve (NOMO1; [1]) | AUC of viability dose-response curve (P12-Ichikawa; HPLM + 10% dialyzed FBS) | AUC of viability dose-response curve (P12-Ichikawa; RPMI 5 mM glucose + 10% FBS) | AUC of viability dose-response curve (P12-Ichikawa; [1]) | AUC of viability dose-response curve (SEM cells; HPLM + 10% dialyzed FBS) | AUC of viability dose-response curve (SEM cells; RPMI 5 mM glucose + 10% FBS) | AUC of viability dose-response curve (SEM cells; [1])
1 | CNC1CCC(N(Cc2cccc(-c3ccncc3)c2)C(=O)c2sc3ccccc3c2Cl)CC1 (centres undefined) | 330 | 326 | 381 | 319 | 326 | 302 | 310 | 267 | 279
2 | CC(=O)O.Cc1c(-c2ccc(O)cc2)n(Cc2ccc(OCCN3CCCCCC3)cc2)c2ccc(O)cc12 | 472 | 446 | 469 | 472 | 459 | 446 | 449 | 423 | 418
3 | COC[C@H]1OC(=O)C2=COC3=C2[C@@]1(C)\C4=C(C5CCC(=O)[C@@]5(C)C[C@H]4OC(C)=O)/C3=O (some centres undefined) |  |  |  |  |  |  | 397 | 432 | 356
4 | CCc1cncnc1N1CCN(Cc2nc3cc(C(F)(F)F)ccc3[nH]2)CC1 | 462 | 425 | 426 | 445 | 437 | 451 | 429 | 425 | 426
5 | COC(=O)Nc1nc2cc(C(=O)c3cccs3)ccc2[nH]1 | 297 | 247 | 269 | 193 | 206 | 242 | 212 | 156 | 211
6 | COC1=CC2=NC=CC(=C2C=C1)OC3=CN=C(NC(=O)C/4=C(C)/N(CC(C)(C)O)N(C4=O)C5=CC=CC=C5)C=C3 | 430 | 431 | 411 | 425 | 414 | 420 |  |  | 
7 | Cc1nc(NC(=O)N2CCC[C@H]2C(N)=O)sc1-c1ccnc(C(C)(C)C(F)(F)F)c1 |  |  |  | 424 | 386 | 399 | 384 | 431 | 400
8 | CN1[C@@H]2CC[C@H]1CC(OC(=O)c1c[nH]c3ccccc13)C2 (some centres undefined) | 436 | 459 | 444 | 463 | 468 | 466 |  |  | 
9 | Cc1ccccc1N1C(=O)c2cc([S+](N)(=O)[O-])c(Cl)cc2NC1C (centres undefined) |  |  |  | 449 | 460 | 450 | 448 | 413 | 462
10 | CCCCn1c(=O)n(Cc2ccccc2F)c(=O)c2nc(Cc3ccc(NC(C)=O)cc3)[nH]c21 |  |  |  | 425 | 409 | 410 | 452 | 442 | 444
11 | CC(C)[C@@H](N(CCCN)C(=O)C1=CC=C(C)C=C1)C/2=N/C3=CC(=CC=C3C(=O)N2CC4=CC=CC=C4)Cl | 123 | 82.4 | 106 | 61 | 66.9 | 97.9 |  |  | 
12 | CC(=O)O[C@H]1C(=O)[C@]2(C)[C@@H](O)C[C@H]3OC[C@@]3(OC(C)=O)C2[C@H](OC(=O)C4=CC=CC=C4)[C@]5(O)C[C@H](OC(=O)[C@H](O)[C@@H](NC(=O)C6=CC=CC=C6)C7=CC=CC=C7)\C(=C1/C5(C)C)C (some centres undefined) |  |  |  | 148 | 143 | 195 |  |  | 
13 | C[C@]12CC[C@@H]3c4ccc(OC(=O)N(CCCl)CCCl)cc4CC[C@H]3[C@@H]1CC[C@@H]2OP(=O)([O-])[O-].[Na+].[Na+] | 406 | 460 | 455 |  |  |  | 429 | 397 | 382
14 | CN(CC#C)C/C1=C/C2=CC=CC=C2OC3=CC=CC=C13 | 401 | 400 | 407 | 417 | 407 | 400 |  |  | 
15 | C[C@@H](NC1=CC=CC=C1C(O)=O)C/2=C/C(=C\N3C(=O)/C=C(\N=C23)N4CCOCC4)C | 338 | 331 | 336 | 407 | 359 | 370 |  |  | 
16 | COc1nccc(-c2c(-c3ccc(F)cc3)ncn2C2CCNCC2)n1 |  |  |  | 452 | 455 | 453 | 460 | 375 | 454
17 | CO[C@H]1/C=C/O[C@@]2(C)Oc3c(C)c(O)c4c(O)c(c5c(nc6cc(C)ccn65)c4c3C2=O)NC(=O)/C(C)=C\C=C\[C@H](C)[C@H](O)[C@@H](C)[C@@H](O)[C@@H](C)[C@H](OC(C)=O)[C@@H]1C |  |  |  |  |  |  | 410 | 394 | 375
18 | NC[C@H]1CC[C@H](C(=O)O)CC1 | 455 | 475 | 448 |  |  |  | 443 | 456 | 456
19 | CC(C)OC(=O)OCOP(=O)(CO[C@H](C)Cn1cnc2c(N)ncnc21)OCOC(=O)OC(C)C.O=C(O)C=CC(=O)O | 446 | 456 | 448 |  |  |  |  |  | 
